Results as given in patent USRE45340E1, “Lentil plants having increased resistance to imidazolinone herbicides” (University of Saskatchewan, priority 2001, dated 2015).

How the values were obtained:
AHAS [1] = assay: Inhibition of AHAS activity in wild type CDC Richlea lentil by imidazolinone herbicides; type: biochemical, lentil (Lens culinaris); details: wild type CDC Richlea lentil variety; increasing herbicide concentrations (FIG. 4, FIG. 5)
Source text: (§1) FIG. 4 is a graph showing the inhibition of AHAS activity in RH44 and CDC Richlea lentil plants by increasing concentrations of imazapic.
(§2) FIG. 5 is a graph showing the inhibition of AHAS activity in RH44 and CDC Richlea lentil plants by increasing concentrations of imazethapyr.
(§3) The AHAS activity in the wild type CDC Richlea lentil variety was inhibited by imazapic (CADRE®)) (FIG. 4) and imazethapyr (PURSUIT®) (FIG. 5) representative of all imidazolinone herbicides.

AHAS [2] = assay: Inhibition of AHAS activity in RH44 lentil by imidazolinone herbicides; type: biochemical, lentil (Lens culinaris); details: RH44 lentil variety, compared with wild type CDC Richlea (FIG. 4, FIG. 5)
Source text: as §1, §2, §3
It is therefore likely that the gene primarily responsible for AHAS activity in the RH44 lentil has undergone a point mutation similar to that observed in corn, wheat and canola. This has made the isozyme coded for by this sequence resistant to imidazolinone inhibition. The wild type isozyme has no such mutation and therefore is susceptible to imidazolinone herbicide. Such a scenario would explain why AHAS activity drops 30 to 40% with the addition of maximum concentrations of imidazolinone herbicides.

transgenic rice = details: cited from earlier work
AHAS [3] = assay: Negative feedback inhibition assay of AHAS activity; type: biochemical, RH44 lentil and CDC Richlea lentil varieties; details: leucine and valine addition (FIG. 3)
Source text: FIG. 3 is a graph showing the inhibition of AHAS activity in RH44 and CDC Richlea lentil plants by a negative feedback inhibition assay.
The responses of the RH44 lentil variety and the CDC Richlea variety were identical in a negative feedback inhibition assay. As described earlier, AHAS is an enzyme active in the biosynthesis of leucine and valine. Under conditions of excess leucine and/or valine, the activity of AHAS is diminished. The ability of leucine and valine addition to inhibit AHAS activity was the same in the RH44 lentil and CDC Richlea lentil varieties, indicating very similar levels of expression and a lack of any discernible difference in AHAS function (FIG. 3).

| SMILES | inhibition of AHAS activity (AHAS [1]) | inhibition of AHAS activity (AHAS [2]) | ability to inhibit AHAS activity, RH44 versus CDC Richlea (AHAS [3]) | other results |
| --- | --- | --- | --- | --- |
| Cc1cnc(C2=NC(=O)C(C)(C(C)C)N2)c(C(=O)O)c1 (centres unmarked) [imazapic] | inhibited | not to the same extent as for the wild type lentil CDC Richlea |  |  |
| COc1nc(C)nc(NC(=O)NS(=O)(=O)c2ccccc2Cl)n1 [chlorsulfuron] |  |  |  | differences in in vitro resistance (transgenic rice; Arabidopsis ALS promoter replaced with the CaMV35S promoter): 40 fold; increase in in vitro resistance (transgenic rice; transgenic rice containing a 35S/ALS transgene): 200 fold |
| CC(C)[C@H](N)C(=O)O [valine] |  |  | the same |  |
| CC(C)C[C@H](N)C(=O)O [leucine] |  |  | the same |  |
| CCc1cnc(C2=NC(C)(C(C)C)C(=O)N2)c(C(=O)O)c1 (centres unmarked) [imazethapyr] | inhibited | not to the same extent as for the wild type lentil CDC Richlea |  |  |
